US20220315574A1, “Beta-Arrestin-Modulating Compounds and Methods of Using Same” (Duke University, priority 2019, published 2022)
Counter-ions that a name gives are not always drawn.

Assays:
[1] = test system: wild-type mouse T cells; type: cell-based; conditions: total T cells and CD4/CD8 subpopulations
Description: Chemotaxis assays were conducted similarly to those previously described Smith, J. S. et al. C-X-C Motif Chemokine Receptor 3 Splice Variants Differentially Activate Beta-Arrestins to Regulate Downstream Signaling Pathways. Mol Pharmacol 92, 136-150, doi:10.1124/mol.117.108522 (2017)). Briefly, mouse leukocytes, obtained by passing cells isolated from the spleen and subjected to erythrocyte lysis through a 70-μm filter, were suspended in RPMI 1640 medium containing 5% FBS. For the assay, 1×10^6 cells in 100 μl of medium were added to the top chamber of a 6.5 mm diameter, 5-μm pore polycarbonate Transwell insert (Costar). Subsequently, cells were treated with βarr small-molecule modulators or vehicle for 30 min, followed by increasing concentrations of CCL19 suspended in 600 μL of the medium in the bottom chamber for 2 hours at 37° C. T cells migrated to the bottom of chamber were recovered, resuspended, washed, stained with a Live/Dead marker (Aqua Dead, ThermoFisher) and antibodies to cell surface markers (CD3, CD4, CD8, and CD45), and fixed with paraformaldehyde. The number of migrated T cells was measured by flow cytometric analysis with a BD LSRII Flow cytometer. […] A 1:10 dilution of input cells was similarly analyzed. Specific T cell migration was calculated by dividing the number of migrated cells by the number of input cells.

[2] = biological target: βarr2 (Rattus norvegicus, UniProt P29067); test: Negative-stain electron microscopy, 2D class averages of βarr2; parameters: final βarr2 (truncated βarr2 at 394) concentration of ˜1 mg/mL; made in house
Description: To prepare for EM visualization of the architecture and structural organization of βarr2-Cmpd30 complexes, purified βarr2 (394) was diluted to 0.5 μM and incubated with 5 μM Cmpd-30 or vehicle (DMSO) in HN buffer (20 mM HEPES pH 7.4 and 150 mM NaCl) for 7 min at room temperature followed by dilution 10× into HN buffer containing 1 μM Cmpd-30, before negative staining. The positive control, βarr2 bound to IP6 sample was prepared similarly (5 μM and 250 μM, respectively) and was diluted 100× into HN buffer containing 10 μM IP6. Grids were prepared using conventional negative-staining protocols as described previously (Peisley, A. & Skiniotis, G. 2D Projection Analysis of GPCR Complexes by Negative Stain Electron Microscopy. Methods Mol Biol 1335, 29-38, doi:10.1007/978-1-4939-2914-6_3 (2015). Briefly, 3 μL of samples were applied onto a glow-discharged EM carbon-coated copper grid, adsorbed on the grid surface, blotted, stained, and air dried before imaging. EM grids were examined with a FEI Tecnai G2 Twin electron microscope and operated at an acceleration voltage of 120 kV. Images were recorded with an Eagle 2K CCD camera at a magnification of ×65,200 and a defocus value of ˜1.5 μm. Two-dimensional EM reference-free alignment and classification of particle projections were performed with the iterative stable alignment and clustering procedure (ISAC)(Yang, Z., et al., Iterative stable alignment and clustering of 2D transmission electron microscope images. Structure 20, 237-247, doi:10.1016/j.str.2011.12.007 (2012)). EM single particles were both automatically and manually selected using Boxer (part of the EMAN 2.1 software suite)(Tang, G. et EMAN2: an extensible image processing suite for electron microscopy. J Struct Biol 157, 38-46, doi:10.1016/j.jsb.2006.05.009 (2007)). A total of ˜250,000 0° particles projections were picked representing all the three βarr2 samples (with vehicle, Cmpd-30 or IP6) and windowed into 96×96-pixel images (with the RELION 2.1-beta-1 software package) and subjected to ISAC. […]

Chain of βarr2 (P29067 1-394): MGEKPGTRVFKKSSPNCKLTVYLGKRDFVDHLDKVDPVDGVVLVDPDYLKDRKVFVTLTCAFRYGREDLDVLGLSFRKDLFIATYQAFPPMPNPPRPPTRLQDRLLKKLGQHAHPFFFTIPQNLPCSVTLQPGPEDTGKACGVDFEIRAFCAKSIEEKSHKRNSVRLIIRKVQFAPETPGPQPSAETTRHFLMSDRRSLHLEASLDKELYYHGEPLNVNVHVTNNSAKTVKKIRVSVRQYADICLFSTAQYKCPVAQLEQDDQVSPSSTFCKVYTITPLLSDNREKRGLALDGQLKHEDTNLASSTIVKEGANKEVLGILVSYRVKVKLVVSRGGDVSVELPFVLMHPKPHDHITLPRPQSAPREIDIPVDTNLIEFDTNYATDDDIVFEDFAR

particle average width of βarr2 class averages ([2]; control βarr2 ~72 Å): 80-90 Å
class averages represented as homo-oligomers (dimers/trimers) ([2]; control βarr 97% monomeric): 95%
SMILES: CN(C)c1n/c(=N/Cc2ccco2)ss1 [Cmpd-30, 5-(furan-2-ylmethylimino)-N,N-dimethyl-1,2,4-dithiazol-3-amine;hydrobromide]
CCL19-induced chemotaxis of T cells [1]: significantly impair
